Measurements from US7642283B2, “Mitochrondrial permeability transition pore affinity labels and modulators” (Hoffmann-La Roche Inc., priority 2003, dated 2010).

Experiments:
[1] = test system: MPTP; test: MPTP induced by phenylarsineoxide or ATR; assay type: biochemical
[2] = test system: T1, MPTP; test: Ca2+-induced swelling in deenergized liver mitochondria; assay type: biochemical; details: n=2; 30 min after addition of 200 μM Ca2+; read-out: EC50 of MPTP inhibition in deenergized mitochondria
T1 construct: other: n=2; 30 min after addition of 200 μM Ca2+

[3] = molecular target: T2, MPTP (Rattus norvegicus, UniProt Q9Z2L0); test: Ca2+-retention capacity of rat brain mitochondria (Calcium Green-5N); assay type: biochemical; details: 1 μM compound; 5 μM Ca2+ pulses; mean±SEM of 3; control 530±70
T2 construct: other: n=2; glutamate/malate; other: glutamate/malate; 20 min; mean±SEM; unit not given; other: 300 nM; relieved by 50 μM Ub5
Experimental: FIG. 4: (A) Effect of Spiro[cyclopentane-1,5′-[5H]dibenzo[a,d]cyclohepten]-2-one,10′,11′-dihydro-3-methylene- and CsA on Ca^2+-retention capacity of rat brain mitochondria. The incubation medium contained 0.2 M sucrose, 10 mM Tris-Mops, pH 7.4, 1 mM Pi-Tris, 5 μM EGTA and 5 mM glutamate/2.5 mM malate, buffered to pH 7.4 with Tris, containing 0.01% (w/v) bovine serum albumin and 1 μM Calcium Green-5N. The final volume was 2.5 ml. Trace (a) control, (b) 1 μM CsA, (c) 1 μM Spiro[cyclopentane-1,5′-[5H]dibenzo[a,d]cyclohepten]-2-one,10′,11′-dihydro-3-methylene- and (d) 1 μM CsA plus 1 μM Spiro[cyclopentane-1,5′-[5H]dibenzo[a,d]cyclohepten]-2-one,10′,11′-dihydro-3-methylene-. Each fluorescence spike corresponds to addition of 5 μM Ca^2+. (B) Comparison of Ca^2+-retention capacity in liver (a) and brain mitochondria (b).
Effect of Spiro[cyclopentane-1,5′-[5H]dibenzo[a,d]cyclohepten]-2-one,10′,11′-dihydro-3-methylene- and CsA on Ca^2+-retention capacity of rat brain mitochondria (FIG. 4). Measurement of extramitochondrial Ca^2+ was determined using a Perkin-Elmer LS-50B fluorimeter controlled by the FL WinLab computer program. […] The final volume was 2.5 ml and the cuvette was thermostated at 25° C. Brain mitochondria were then subjected to a train of 5 μM Ca^2+ additions (˜150 nmol mg protein^−1). Extramitochondrial Ca^2+ was monitored at excitation/emission wavelengths of 505-535. […] The Ca^2+-retention capacity in liver (a) and brain mitochondria (b) were also compared (FIG. 4B).
(§1) The effect of Spiro[cyclopentane-1,5′-[5H]dibenzo[a,d]cyclohepten]-2-one,10′,11′-dihydro-3-methylene- at inhibiting MPTP was also investigated in mitochondria isolated from rat forebrain. […] Due to the difficulties mentioned above, the effect of Spiro[cyclopentane-1,5′-[5H]dibenzo[a,d]cyclohepten]-2-one,10′,11′-dihydro-3-methylene- on MPTP in brain mitochondria was more accurately investigated by subjecting mitochondria isolated from rat forebrain to a series of Ca^2+ pulses (5 μM, ˜150 nmol mg protein^−1) and by monitoring extramitochondrial Ca^2+ or using fluororescent probes.

[4] = molecular target: T3, YVDAC1 (Saccharomyces cerevisiae, UniProt P04840); test: Affinity labeling of yeast mitochondria (Δpor1 and Δpor1 expressing YVDAC1); assay type: binding; details: Δpor1 yeast mitochondria expressing YVDAC1; increasing concentration
T3 construct: expressed in transfected cells; host or cells: Δpor1 yeast strain carrying a YVDAC1 plasmid; isolated mitochondria
T3 sequence (P04840 2-283): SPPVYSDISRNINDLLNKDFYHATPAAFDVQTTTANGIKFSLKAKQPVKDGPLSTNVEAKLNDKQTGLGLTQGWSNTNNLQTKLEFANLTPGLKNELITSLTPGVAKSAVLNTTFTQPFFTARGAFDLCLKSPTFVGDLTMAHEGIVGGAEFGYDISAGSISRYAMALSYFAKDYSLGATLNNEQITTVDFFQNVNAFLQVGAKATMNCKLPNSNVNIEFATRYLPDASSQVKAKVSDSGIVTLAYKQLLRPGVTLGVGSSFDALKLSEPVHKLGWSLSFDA
From the text: FIG. 9: Spiro[cyclopentane-1,5′-[5H]dibenzo[a,d]cyclohepten]-2-one,10′,11′-t2-10′,11′-dihydro-3-methylene affinity labeling of yeast mitochondria lacking the por1 gene for YVDAC1 (Δpor1) and into Δpor1 yeast mitochondria transfected with YVDAC1 in presence or absence of different concentrations of Spiro[cyclopentane-1,5′-[5H]dibenzo[a,d]cyclohepten]-2-one,10′,11′-dihydro-3-methylene (unlabeled). The fluorograms of gels after SDS-PAGE are shown. Mitochondria isolated from yeast strains were incubated in the presence of 10 nM Spiro[cyclopentane-1,5′-[5H]dibenzo[a,d]cyclohepten]-2-one,10′,11′-t2-10′,11′-dihydro-3-methylene for 15 min at 25° C. Numbers indicate the concentrations (μM) of the various compounds added.
To further confirm VDAC1 as the protein target of Spiro[cyclopentane-1,5′-[5H]dibenzo[a,d]cyclohepten]-2-one,10′,11′-dihydro-3-methylene-, the labeling of proteins in mitochondria prepared from yeasts by Spiro[cyclopentane-1,5′-[5H]dibenzo[a,d]cyclohepten]-2-one,10′,11′-t2-10′,11′-dihydro-3-methylene- was investigated. […] Increasing concentration of unlabelled Spiro[cyclopentane-1,5′-[5H]dibenzo[a,d]cyclohepten]-2-one,10′,11′-dihydro-3-methylene-inhibited incorporation of the radioactivity (FIG. 9).

[5] = molecular target: T2, MPTP; test: Ca2+-induced swelling in rat brain mitochondria; assay type: biochemical; details: 80 μM CaCl2; potency in the range of liver mitochondria
Experimental: as §1

[6] = test system: mitochondrial respiration; test: Mitochondrial respiration (oxygen consumption); assay type: biochemical; details: at concentrations completely blocking MPTP
Experimental: Isolated liver mitochondria (˜0.5 mg protein ml^−1) were incubated in a batch mode in the presence of 20 nM [^3H]TPP ([^3H]Tetraphenylphosphonium ([^3H]TPP, 24-29 Ci/mmol) from Amersham Biosciences, Switzerland) for 15 min at 25° C. Aliquots (100 μl) of the mixture were then distributed into 96-well plates containing 100 μl of the test compound and the incubation prolonged for 15 min at 25° C. Samples were then filtered through 0.3% (v/v) polyethyleneimmine-treated GF/B glass fiber filters using a 96-channel cell harvester and the filters washed twice with 1 ml of buffer. Fifty μl of MICROSCINT 40 (Packard) were then added to each well, before counting for radioactivity in a TopCount scintillation counter (Packard). Non-specific uptake was determined in the presence of 1 mM unlabeled TPP or 1 μM carbonylcianide-p-trifluoromethoxyphenyl hydrazone (FCCP). Mitochondrial oxygen consumption was measured polarographically at 25° C. using a Clark-type electrode.
Compounds found to inhibit MPTP where then counter-screened using uptake of the potentiometric probe [^3H]-TPP (Hoek, J. B., Nicholls, D. G. & Williamson, J. R. (1980) J. Biol. Chem. 255, 1458-1564) for determining in a semi-quantitative, but rapid way whether they interfered with mitochondrial respiration (e.g. protonophores). […]

T2 sequence (Q9Z2L0 2-283): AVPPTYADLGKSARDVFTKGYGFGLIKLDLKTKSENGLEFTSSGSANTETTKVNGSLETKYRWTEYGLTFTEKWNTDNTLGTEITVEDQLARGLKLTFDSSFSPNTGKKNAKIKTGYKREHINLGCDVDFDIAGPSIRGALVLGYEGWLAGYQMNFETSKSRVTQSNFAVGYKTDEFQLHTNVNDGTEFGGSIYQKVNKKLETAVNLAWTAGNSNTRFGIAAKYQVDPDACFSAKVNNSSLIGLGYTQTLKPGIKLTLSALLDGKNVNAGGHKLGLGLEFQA

For `C=C1CCC2(C1=O)c1ccccc1CCc1ccccc12` [Spiro[cyclopentane-1,5′-[5H]dibenzo[a,d]cyclohepten]-2-one,10′,11′-dihydro-3-methylene-], the “Inhibition of MPTP induced by ATR” value ([1]; ATR 50 μM) was “inhibited”, the “Inhibition of MPTP induced by phenylarsineoxide” value ([1]; phenylarsineoxide 25 μM) was “inhibited” and the EC50 [2] was 370 nM. The “Ca2+-buffering capacity” value [3] was 1200±120 nmol Ca^2+ mg protein^−1, the “Effect of unlabelled compound on incorporation of radioactivity” value [4] was “inhibited” and the “Inhibition of swelling in brain mitochondria” value [5] was “inhibited”. For the same molecule, the “Inhibition of mitochondrial respiration (basal, ADP-induced and uncoupled)” value [6] was “did not inhibit”.
